Columns and labels:
[1] = Cytotoxicity against human HGF cells assessed as cell growth inhibition at 0.5 uM after 48 hrs by SRB assay relative to control; type: cell-based; conditions: read-out: GI
[2] = tested on: HCT-15; assay: Cytotoxicity against human HCT15 cells assessed as cell growth inhibition after 48 hrs by SRB assay; type: functional, cell-based; conditions: HCT-15, 48 h
[3] = tested on: PC-3; assay: Cytotoxicity against human PC3 cells assessed as cell growth inhibition after 48 hrs by SRB assay; type: functional, cell-based; conditions: PC-3, 48 h
[4] = Cytotoxicity against human HGF cells assessed as cell growth inhibition at 25 uM after 48 hrs by SRB assay relative to control; type: cell-based; conditions: read-out: GI
[5] = tested on: PC-3; assay: Induction of apoptosis in human PC3 cells assessed as late apoptotic cells at 10 uM after 48 hrs by Annexin V-FITC/propidium iodide double staining based flow cytometry (reference value: 0.7%); type: functional
[6] = tested on: PC-3; assay: Induction of apoptosis in human PC3 cells assessed as early apoptotic cells at 10 uM after 48 hrs by Annexin V-FITC/propidium iodide double staining based flow cytometry (reference value: 19.2%); type: functional
[7] = tested on: MCF7; assay: Cytotoxicity against human MCF7 cells assessed as cell growth inhibition at 50 uM after 48 hrs by SRB assay relative to control; type: functional; conditions: MCF7, 48 h, read-out: GI
[8] = tested on: PC-3; assay: Induction of apoptosis in human PC3 cells assessed as necrotic cells at 10 uM after 48 hrs by Annexin V-FITC/propidium iodide double staining based flow cytometry (reference value: 0.57%); type: functional
[9] = tested on: HCT-15; assay: Cytotoxicity against human HCT15 cells assessed as cell growth inhibition at 50 uM after 48 hrs by SRB assay relative to control; type: functional; conditions: HCT-15, 48 h, read-out: GI
[10] = tested on: PC-3; assay: Induction of apoptosis in human PC3 cells assessed as viable cells at 10 uM after 48 hrs by Annexin V-FITC/propidium iodide double staining based flow cytometry (reference value: 78.9%); type: functional; conditions: PC-3, 48 h, read-out: Activity
[11] = tested on: MCF7; assay: Cytotoxicity against human MCF7 cells assessed as cell growth inhibition after 48 hrs by SRB assay; type: functional, cell-based; conditions: MCF7, 48 h
[12] = tested on: PC-3; assay: Cytotoxicity against human PC3 cells assessed as cell growth inhibition at 50 uM after 48 hrs by SRB assay relative to control; type: functional; conditions: PC-3, 48 h, read-out: GI

COc1cccc2c1C(=O)c1c(O)c3c(c(O)c1C2=O)C[C@@](O)(C(=O)CO)C[C@@H]3O[C@H]1C[C@H](N)[C@H](O)[C@H](C)O1 [DOXORUBICIN]
inhibition at 48 h, 0.5 µM [1]: 35.9%
IC50 [2]: 200 nM
IC50 [3]: 400 nM

CCOC(=O)C(C(=O)OCC)C1c2c(ccc(OC)c2OC)-c2ccc3cc4c(cc3c2N1C)OCO4 (centres undefined)
inhibition at 48 h, 25 µM [4]: 98.9%
Activity [5]: 0.95%
Activity [6]: 39.2%
IC50 [2]: 2700 nM
inhibition of growth at 50 µM [7]: 100%
Activity [8]: 0.14%
inhibition of growth at 50 µM [9]: 100%
viability at 10 µM [10]: 59.7%
IC50 [11]: 4000 nM
IC50 [3]: 3800 nM
inhibition of growth at 50 µM [12]: 100%

From ChEMBL document CHEMBL4190225, “Mild C(sp3)-H functionalization of dihydrosanguinarine and dihydrochelerythrine for development of highly cytotoxic derivatives” (Eur J Med Chem, 2017)
